In patent US20230085307A1, “PYRIDAZINONE COMPOUND AND HERBICIDE” (NISSAN CHEMICAL CORPORATION, priority 2019, published 2023):

Experiments:
windgrass [1] = assay: Test Example 4: herbicidal effect by soil treatment (Table 19, symbol L); assay type: in vivo, windgrass (Apera spica-venti); conditions: amount of applied herbicide 320 g/ha
Outline: (§1)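 Step 1: sow seeds in sterilized diluvial soil, cover ~1.5 cm. Step 2: spray diluted emulsion onto soil surface at predetermined rate. Step 3: greenhouse, 25–30° C, three weeks. Step 4: grade effect on each plant by earlier criteria.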

chickweed [2] = assay: Test Example 5: herbicidal effect by foliage application, plastic box (Table 20, symbol P); assay type: in vivo, common chickweed (Stellaria media); conditions: foliage application, 320 g/ha
Outline: (§2)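 Foliar spray test: emulsion formulation diluted in water to a set application rate, sprayed onto 14-day-old plants raised in diluvial soil at 25° C to 30° C under glass. Both herbicidal effect and crop effect rated visually three weeks later.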

blackgrass [3] = assay: Test Example 5: herbicidal effect by foliage application, plastic box (Table 20, symbol J); assay type: in vivo, blackgrass (Alopecurus myosuroides); conditions: foliage application, 320 g/ha
Outline: as §2

persian speedwell [4] = assay: Test Example 5: herbicidal effect by foliage application, plastic box (Table 20, symbol R); assay type: in vivo, Persian speedwell (Veronica persica); conditions: foliage application, 320 g/ha
Outline: as §2

Italian ryegrass [5] = assay: Test Example 4: herbicidal effect by soil treatment (Table 19, symbol K); assay type: in vivo, Italian ryegrass (Lolium multiflorum); conditions: amount of applied herbicide 320 g/ha
Outline: as §1

persian speedwell [6] = assay: Test Example 4: herbicidal effect by soil treatment (Table 19, symbol R); assay type: in vivo, Persian speedwell (Veronica persica); conditions: amount of applied herbicide 320 g/ha
Outline: as §1

southern crabgrass [7] = assay: Test Example 4: herbicidal effect by soil treatment (Table 19, symbol F); assay type: in vivo, southern crabgrass (Digitaria ciliaris); conditions: amount of applied herbicide 320 g/ha
Outline: as §1

redroot pigweed [8] = assay: Test Example 5: herbicidal effect by foliage application, plastic box (Table 20, symbol N); assay type: in vivo, redroot pigweed (Amaranthus retroflexus); conditions: foliage application, 320 g/ha
Outline: as §2

barnyard grass [9] = assay: Test Example 4: herbicidal effect by soil treatment (Table 19, symbol H); assay type: in vivo, barnyard grass (Echinochloa crus-galli); conditions: amount of applied herbicide 320 g/ha
Outline: as §1

Chinese sprangletop = assay: Test Example 3: herbicidal effect by foliage application, Wagner pot (Table 18, symbol D); assay type: in vivo, chinese sprangletop (Leptochloa chinensis); conditions: amount of applied herbicide 320 g/ha
Outline: (§3)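 Plants were sown in alluvial soil held under 0.1–0.5 cm standing water and grown 14 days in a greenhouse at 25–30 °C. An emulsifiable formulation, water-diluted to the set dose, was then sprayed onto the foliage, and effects were scored three weeks later using previously defined criteria.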

blackgrass [10] = assay: Test Example 4: herbicidal effect by soil treatment (Table 19, symbol J); assay type: in vivo, blackgrass (Alopecurus myosuroides); conditions: amount of applied herbicide 320 g/ha
Outline: as §1

wild oat [11] = assay: Test Example 4: herbicidal effect by soil treatment (Table 19, symbol I); assay type: in vivo, wild oat (Avena fatua); conditions: amount of applied herbicide 320 g/ha
Outline: as §1

green foxtail [12] = assay: Test Example 4: herbicidal effect by soil treatment (Table 19, symbol G); assay type: in vivo, green foxtail (Setaria viridis); conditions: amount of applied herbicide 320 g/ha
Outline: as §1

lambsquarters [13] = assay: Test Example 5: herbicidal effect by foliage application, plastic box (Table 20, symbol O); assay type: in vivo, lambsquarters (Chenopodium album); conditions: foliage application, 320 g/ha
Outline: as §2

rice flat sedge = assay: Test Example 3: herbicidal effect by foliage application, Wagner pot (Table 18, symbol E); assay type: in vivo, rice flat sedge (Cyperus iria); conditions: amount of applied herbicide 320 g/ha
Outline: as §3

false cleavers = assay: Test Example 4: herbicidal effect by soil treatment (Table 19, symbol Q); assay type: in vivo, false cleavers (Galium spurium); conditions: amount of applied herbicide 320 g/ha
Outline: as §1

barnyard grass [14] = assay: Test Example 5: herbicidal effect by foliage application, plastic box (Table 20, symbol H); assay type: in vivo, barnyard grass (Echinochloa crus-galli); conditions: foliage application, 320 g/ha
Outline: as §2

green foxtail [15] = assay: Test Example 5: herbicidal effect by foliage application, plastic box (Table 20, symbol G); assay type: in vivo, green foxtail (Setaria viridis); conditions: foliage application, 320 g/ha
Outline: as §2

Italian ryegrass [16] = assay: Test Example 5: herbicidal effect by foliage application, plastic box (Table 20, symbol K); assay type: in vivo, Italian ryegrass (Lolium multiflorum); conditions: foliage application, 320 g/ha
Outline: as §2

wild oat [17] = assay: Test Example 5: herbicidal effect by foliage application, plastic box (Table 20, symbol I); assay type: in vivo, wild oat (Avena fatua); conditions: foliage application, 320 g/ha
Outline: as §2

velvetleaf [18] = assay: Test Example 4: herbicidal effect by soil treatment (Table 19, symbol M); assay type: in vivo, velvetleaf (Abutilon theophrasti); conditions: amount of applied herbicide 320 g/ha
Outline: as §1

redroot pigweed [19] = assay: Test Example 4: herbicidal effect by soil treatment (Table 19, symbol N); assay type: in vivo, redroot pigweed (Amaranthus retroflexus); conditions: amount of applied herbicide 320 g/ha
Outline: as §1

southern crabgrass [20] = assay: Test Example 5: herbicidal effect by foliage application, plastic box (Table 20, symbol F); assay type: in vivo, southern crabgrass (Digitaria ciliaris); conditions: foliage application, 320 g/ha
Outline: as §2

windgrass [21] = assay: Test Example 5: herbicidal effect by foliage application, plastic box (Table 20, symbol L); assay type: in vivo, windgrass (Apera spica-venti); conditions: foliage application, 320 g/ha
Outline: as §2

chickweed [22] = assay: Test Example 4: herbicidal effect by soil treatment (Table 19, symbol P); assay type: in vivo, common chickweed (Stellaria media); conditions: amount of applied herbicide 320 g/ha
Outline: as §1

velvetleaf [23] = assay: Test Example 5: herbicidal effect by foliage application, plastic box (Table 20, symbol M); assay type: in vivo, velvetleaf (Abutilon theophrasti); conditions: foliage application, 320 g/ha
Outline: as §2

barnyard grass [24] = assay: Test Example 3: herbicidal effect by foliage application, Wagner pot (Table 18, symbol H); assay type: in vivo, barnyard grass (Echinochloa crus-galli); conditions: amount of applied herbicide 320 g/ha
Outline: as §3

lambsquarters [25] = assay: Test Example 4: herbicidal effect by soil treatment (Table 19, symbol O); assay type: in vivo, lambsquarters (Chenopodium album); conditions: amount of applied herbicide 320 g/ha
Outline: as §1

[26] = evaluated 3 weeks after application

SMILES: C=CCSc1ccc(-c2sc3ccc(F)cc3c2-c2c(O)c(C)nn(C)c2=O)cc1 [2-422]
- herbicidal effect, L: windgrass (windgrass [1]): 0 (Herbicidal rate of 5% or less (almost no effect))
- P: chickweed, herbicidal effect grade (chickweed [2]; three weeks after application): 5 (Herbicidal rate of 90% or more (almost completely withered))
- J: blackgrass, herbicidal effect grade (blackgrass [3]; three weeks after application): 4 (Herbicidal rate of 70% or more and less than 90%)
- R: persian speedwell, herbicidal effect grade (persian speedwell [4]; three weeks after application): 5 (Herbicidal rate of 90% or more (almost completely withered))
- herbicidal effect, K: Italian ryegrass (Italian ryegrass [5]): 0 (Herbicidal rate of 5% or less (almost no effect))
- herbicidal effect, R: persian speedwell (persian speedwell [6]): 0 (Herbicidal rate of 5% or less (almost no effect))
- herbicidal effect, F: southern crabgrass (southern crabgrass [7]): 1 (Herbicidal rate of 5% or more and less than 20%)
- N: redroot pigweed, herbicidal effect grade (redroot pigweed [8]; three weeks after application): 5 (Herbicidal rate of 90% or more (almost completely withered))
- herbicidal effect, H: barnyard grass (barnyard grass [9]): 1 (Herbicidal rate of 5% or more and less than 20%)
- herbicidal effect on D: Chinese sprangletop (Chinese sprangletop): 3 (Herbicidal rate of 40% or more and less than 70%)
- herbicidal effect, J: blackgrass (blackgrass [10]): 0 (Herbicidal rate of 5% or less (almost no effect))
- herbicidal effect, I: wild oat (wild oat [11]): 0 (Herbicidal rate of 5% or less (almost no effect))
- herbicidal effect, G: green foxtail (green foxtail [12]): 2 (Herbicidal rate of 20% or more and less than 40%)
- O: lambsquarters, herbicidal effect grade (lambsquarters [13]; three weeks after application): 5 (Herbicidal rate of 90% or more (almost completely withered))
- herbicidal effect on E: rice flat sedge (rice flat sedge): 5 (Herbicidal rate of 90% or more (almost completely withered))
- herbicidal effect, Q: false cleavers (false cleavers): 0 (Herbicidal rate of 5% or less (almost no effect))
- H: barnyard grass, herbicidal effect grade (barnyard grass [14]; three weeks after application): 5 (Herbicidal rate of 90% or more (almost completely withered))
- G: green foxtail, herbicidal effect grade (green foxtail [15]; three weeks after application): 5 (Herbicidal rate of 90% or more (almost completely withered))
- K: Italian ryegrass, herbicidal effect grade (Italian ryegrass [16]; three weeks after application): 5 (Herbicidal rate of 90% or more (almost completely withered))
- I: wild oat, herbicidal effect grade (wild oat [17]; three weeks after application): 5 (Herbicidal rate of 90% or more (almost completely withered))
- herbicidal effect, M: velvetleaf (velvetleaf [18]): 1 (Herbicidal rate of 5% or more and less than 20%)
- herbicidal effect, N: redroot pigweed (redroot pigweed [19]): 5 (Herbicidal rate of 90% or more (almost completely withered))
- F: southern crabgrass, herbicidal effect grade (southern crabgrass [20]; three weeks after application): 2 (Herbicidal rate of 20% or more and less than 40%)
- L: windgrass, herbicidal effect grade (windgrass [21]; three weeks after application): 5 (Herbicidal rate of 90% or more (almost completely withered))
- herbicidal effect, P: chickweed (chickweed [22]): 0 (Herbicidal rate of 5% or less (almost no effect))
- M: velvetleaf, herbicidal effect grade (velvetleaf [23]; three weeks after application): 5 (Herbicidal rate of 90% or more (almost completely withered))
- herbicidal effect on H: barnyard grass (barnyard grass [24]): 5 (Herbicidal rate of 90% or more (almost completely withered))
- herbicidal effect, O: lambsquarters (lambsquarters [25]): 3 (Herbicidal rate of 40% or more and less than 70%)

SMILES: Cc1nn(C)c(=O)c(-c2c(-c3ccc(Cl)s3)oc3ccc(F)cc23)c1O [9-047]
- L: windgrass, herbicidal effect grade (windgrass [1]): 0 (Herbicidal rate of 5% or less (almost no effect))
- P (chickweed) herbicidal effect grade (chickweed [2]; [26]): 5 (Herbicidal rate of 90% or more (almost completely withered))
- J (blackgrass) herbicidal effect grade (blackgrass [3]; [26]): 0 (Herbicidal rate of 5% or less (almost no effect))
- R (persian speedwell) herbicidal effect grade (persian speedwell [4]; [26]): 4 (Herbicidal rate of 70% or more and less than 90%)
- K: Italian ryegrass, herbicidal effect grade (Italian ryegrass [5]): 4 (Herbicidal rate of 70% or more and less than 90%)
- R: persian speedwell, herbicidal effect grade (persian speedwell [6]): 1 (Herbicidal rate of 5% or more and less than 20%)
- F: southern crabgrass, herbicidal effect grade (southern crabgrass [7]): 0 (Herbicidal rate of 5% or less (almost no effect))
- N (redroot pigweed) herbicidal effect grade (redroot pigweed [8]; [26]): 3 (Herbicidal rate of 40% or more and less than 70%)
- H: barnyard grass, herbicidal effect grade (barnyard grass [9]): 0 (Herbicidal rate of 5% or less (almost no effect))
- Herbicidal effect on D (Chinese sprangletop), foliage application (Chinese sprangletop): 0 (Herbicidal rate of 5% or less (almost no effect))
- J: blackgrass, herbicidal effect grade (blackgrass [10]): 0 (Herbicidal rate of 5% or less (almost no effect))
- I: wild oat, herbicidal effect grade (wild oat [11]): 0 (Herbicidal rate of 5% or less (almost no effect))
- G: green foxtail, herbicidal effect grade (green foxtail [12]): 0 (Herbicidal rate of 5% or less (almost no effect))
- O (lambsquarters) herbicidal effect grade (lambsquarters [13]; [26]): 1 (Herbicidal rate of 5% or more and less than 20%)
- Herbicidal effect on E (rice flat sedge), foliage application (rice flat sedge): 3 (Herbicidal rate of 40% or more and less than 70%)
- Q: false cleavers, herbicidal effect grade (false cleavers): 0 (Herbicidal rate of 5% or less (almost no effect))
- H (barnyard grass) herbicidal effect grade (barnyard grass [14]; [26]): 3 (Herbicidal rate of 40% or more and less than 70%)
- G (green foxtail) herbicidal effect grade (green foxtail [15]; [26]): 2 (Herbicidal rate of 20% or more and less than 40%)
- K (Italian ryegrass) herbicidal effect grade (Italian ryegrass [16]; [26]): 4 (Herbicidal rate of 70% or more and less than 90%)
- I (wild oat) herbicidal effect grade (wild oat [17]; [26]): 1 (Herbicidal rate of 5% or more and less than 20%)
- M: velvetleaf, herbicidal effect grade (velvetleaf [18]): 0 (Herbicidal rate of 5% or less (almost no effect))
- N: redroot pigweed, herbicidal effect grade (redroot pigweed [19]): 3 (Herbicidal rate of 40% or more and less than 70%)
- F (southern crabgrass) herbicidal effect grade (southern crabgrass [20]; [26]): 3 (Herbicidal rate of 40% or more and less than 70%)
- L (windgrass) herbicidal effect grade (windgrass [21]; [26]): 0 (Herbicidal rate of 5% or less (almost no effect))
- P: chickweed, herbicidal effect grade (chickweed [22]): 0 (Herbicidal rate of 5% or less (almost no effect))
- M (velvetleaf) herbicidal effect grade (velvetleaf [23]; [26]): 2 (Herbicidal rate of 20% or more and less than 40%)
- Herbicidal effect on H (barnyard grass), foliage application (barnyard grass [24]): 2 (Herbicidal rate of 20% or more and less than 40%)
- O: lambsquarters, herbicidal effect grade (lambsquarters [25]): 0 (Herbicidal rate of 5% or less (almost no effect))
